From patent publication US9320771B2, “TTO-based wide spectrum therapeutics, disinfectants and anesthetics for use in aquaculture” (priority 2006, dated 2016)
Read-outs that look alike come from different tables or passages of the source.

How the values were obtained:
[1] = test system: atypical Aeromonas salmonicida; assay: Culture and sensitivity test, zones of inhibition on T.S.A. culture media; type: cell-based; details: 24 h at 24° C.; for zone of inhibition at 30 µg/disc: Aeromonas salmonicida, 24 h, read-out: Zones of inhibition (mm) after 24 h
Experimental: Four TTO-based compositions of the present invention, namely Compositions A-D (See Example 7) were evaluated in their efficacy to inhibit and prevent growth of atypical Aeromonas salmonicida, the causative agent of ulcerative disease of carps on T.S.A. culture media. Every culture plate was inoculated with Gram-negative Aeromonas Bacteria obtained from ulcerated Goldfish. Plates were sterile cultures incubated for 24 h at a temperature of 24° C. Inhibition of the TTO-based compositions was compared simultaneously with 2 familiar anti-bacterial medications, namely (i) Tetracycline (30 μg per disc); and (ii), Norfloxacin (10 30 μg per disc). Comparison discs were supplemented in the lab with 20 to 30 μg of the TTO-based compositions each: 50% Composition D; 50% Composition C; and 66% Composition B (See Example 7).

[2] = test system: Red-clawed Crayfish (Cherax Quadricarinatus); assay: Growth rate of Red-clawed Crayfish; type: in vivo; details: compared to the control group as base reference
Experimental: In a separate experiment the growth rate of Red-clawed Crayfish treated with the TTO formulation was tested in comparison to an untreated tank and to two other disinfecting agents: formaldehyde and sodium bromide (e.g., commercially available Bromex™).

viral diseases of fish = details: cited from earlier work

CCn1cc(C(=O)O)c(=O)c2cc(F)c(N3CCNCC3)cc21 [Norfloxacin]
Zones of inhibition (mm) after 24 h ([1]; 10 30 μg per disc, listed as Nx.): 20 mm
zone of inhibition at 30 µg/disc ([1]; 10 30 μg per disc): 28 mm

CN(C)[C@@H]1C(O)=C(C(N)=O)C(=O)[C@@]2(O)C(O)=C3C(=O)c4c(O)cccc4[C@@](C)(O)[C@H]3C[C@@H]12 [Tetracycline]
Zones of inhibition (mm) after 24 h ([1]; 30 μg per disc): 22 mm
zone of inhibition at 30 µg/disc ([1]; 30 μg per disc): 18 mm

C=O [formaldehyde]
growth rates [2]: about 0.08 % per day

CN(C)c1ccc(C(=C2C=CC(=[N+](C)C)C=C2)c2ccccc2)cc1 [malachite green]
effectiveness against viral diseases of fish (viral diseases of fish): not effective
